Experimental findings from patent US8815909B2, “Diaminocyclohexane compounds and uses thereof” (Bristol-Myers Squibb Company, priority 2011, dated 2014) are described below.

This assay concerns the target T1, human Y4 receptor (Homo sapiens, UniProt P50391).
T1 construct: expressed in transfected cells
Nature of the assay: NPY4 cAMP HTRF Agonist Assay (inhibitory cAMP assay, Gi activation by Y4 agonism). Type of assay: cell-based. The method, boiled down:
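Y4 agonism read as lowered forskolin-stimulated cAMP (HTRF, 1 h detection at room temperature). Stable human Y4 CHO clone, 5000 cells/well, incubated 30 min at room temperature with compounds plus forskolin and IBMX in PBS.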

[1] abbreviates: second TABLE 1, R2 is Phenyl-CF3, read-out: hY4 CAMP EC50.
The mark [2] stands for this setting: human Y4 receptor, cAMP, read-out: hY4 CAMP EC50.
Setting [3] is: TABLE 7, R2 is Pyridinyl-oxadiazole-CH3, read-out: hY4 CAMP EC50.
Setting [4] is: TABLE 2, R2 is Phenyl-CN, read-out: hY4 CAMP EC50.
Where [5] appears, read: TABLE 3, R2 is Phenyl-NO2, read-out: hY4 CAMP EC50.
[6] abbreviates: human Y4 stable CHO clonal cells, forskolin + IBMX, read-out: NPY4 cAMP HTRF Agonist Assay EC50.

Where a name gives a salt, the structure may show the parent alone. Read-outs that look alike come from different tables or passages of the source.

T1 sequence (P50391 whole entry): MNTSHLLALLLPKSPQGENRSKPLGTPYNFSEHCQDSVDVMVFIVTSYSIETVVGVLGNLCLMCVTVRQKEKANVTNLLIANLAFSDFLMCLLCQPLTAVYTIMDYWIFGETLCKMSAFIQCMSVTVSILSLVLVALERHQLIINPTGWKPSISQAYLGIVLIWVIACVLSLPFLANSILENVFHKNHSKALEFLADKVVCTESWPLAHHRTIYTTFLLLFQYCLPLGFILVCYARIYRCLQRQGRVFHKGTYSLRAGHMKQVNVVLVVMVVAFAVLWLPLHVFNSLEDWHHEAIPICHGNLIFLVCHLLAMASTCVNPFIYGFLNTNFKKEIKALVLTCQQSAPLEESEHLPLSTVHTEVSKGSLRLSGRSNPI

In the case of `CC(C)(O)C#Cc1ccnc(N[C@@H]2CCCC[C@H]2N[C@H]2CCCN(c3ccc(C(F)(F)F)cc3)C2)c1` [Example 162], the concentration for a half-maximal effect (EC50) under setting [1] was 0.546 µM.

Consider `Cn1nnnc1-c1ccc(N2CCC[C@H](N[C@@H]3CCCC[C@H]3Nc3nccc(-c4ccccc4)n3)C2)cc1` [Example 502], for which the EC50 under setting [2] was determined as 0.098 µM.

In the case of `Cc1nc(-c2ccc(N3CCC[C@H](N[C@@H]4CCCC[C@H]4Nc4cc(-c5cccc(C(N)=O)c5)ccn4)C3)nc2)no1` [Example 393], under setting [3], the EC50 was 0.001 µM.

`NC(=O)c1cccc(-c2cnc(N[C@@H]3CCCC[C@H]3N[C@H]3CCCN(c4ccc(F)c(F)c4)C3)o2)c1` [Example 454]: under setting [2], the EC50 amounted to 0.003 µM.

On to `N#Cc1ccc(N2CCC[C@H](N[C@@H]3CCCC[C@H]3Nc3cc(-c4cccc5c4NC(=O)C5)ccn3)C2)cc1` [Example 213], for which the 50% effective concentration (EC50) under setting [4] amounted to 0.183 µM.

With `Cc1nc(-c2ncc(N3CCC[C@H](N[C@@H]4CCCC[C@H]4Nc4cc(-c5ccc(F)c(F)c5)ccn4)C3)cn2)no1` [Example 467], the EC50 under setting [2] is 0.002 µM.

On to `NC(=O)c1cccc(-c2cc(N[C@@H]3CCCC[C@H]3N[C@H]3C[C@@H]4C[C@H]3N(c3ccc([N+](=O)[O-])cc3)C4)ncn2)c1` [Example 297], for which the concentration giving a half-maximal response (EC50) under setting [5] was 0.163 µM.

Consider `CCOC(=O)Nc1cccc(-c2cnc(N[C@@H]3CCCC[C@H]3N[C@H]3CCCN(c4ccc(C(F)(F)F)nc4)C3)o2)c1` [Example 102], for which the concentration giving a half-maximal response (EC50) under setting [6] came out at 0.0004 µM.

On to `C[C@]1(N[C@@H]2CCCC[C@H]2Nc2ncc(-c3cccc(C(N)=O)c3)o2)CCCN(c2ccc(C(F)(F)F)cn2)C1` [Example 329], for which the EC50 (TABLE 5, R2 is Pyridinyl-CF3, read-out: hY4 CAMP EC50) is 0.001 µM.

Turning to `N#Cc1ccc(N2C[C@@H]3C[C@H](N[C@@H]4CCCC[C@H]4Nc4ncc(-c5ccc(O)cc5)o4)[C@H]2C3)cc1` [Example 225], the concentration for a half-maximal effect (EC50) under setting [4] was 0.054 µM.

Take `N#Cc1ccnc(N[C@@H]2CCCC[C@H]2N[C@H]2CCCN(c3ccc(C(F)(F)F)cc3)C2)n1` [Example 194]: under setting [1], the EC50 is 0.606 µM.

On to `FC(F)(F)c1ccc(N2CCC[C@H](N[C@@H]3CCCC[C@H]3Nc3cc(-c4ccc5c(c4)CNCC5)ccn3)C2)cc1` [Example 146], for which, under setting [1], the concentration giving a half-maximal response (EC50) was 0.726 µM.

With `N#Cc1ccc(N2CCC[C@H](N[C@@H]3CCCC[C@H]3Nc3cc(-c4ccccn4)ccn3)C2)cc1` [Example 270], under setting [4], the half-maximal effective concentration (EC50) turned out to be 0.468 µM.

Turning to `FC(F)(F)Oc1ccc(N2CCC[C@H](N[C@@H]3CCCC[C@H]3Nc3nccc(-c4ccccc4)n3)C2)cc1` [Example 88, (1R,2R)—N1-(4-Phenylpyrimidin-2-yl)-N2-((S)-1-(4-(trifluoromethoxy)phenyl)piperidin-3-yl)cyclohexane-1,2-diamine], under setting [6], the EC50 stood at 0.704 µM.

Turning to `Cc1noc(-c2ccc(N3CCC[C@H](N[C@@H]4CCCC[C@H]4Nc4cc(-c5cccc(C(N)=O)c5)ccn4)C3)cc2)n1` [Example 374], under setting [2], the EC50 came out at 0.002 µM.

With `N#Cc1ccc(N2CCC[C@H](N[C@@H]3CCCC[C@H]3Nc3ncc4cc(F)ccc4n3)C2)cc1` [Example 283], under setting [4], the EC50 was 0.308 µM.

Regarding `COC(=O)c1ccccc1-c1ccnc(N[C@@H]2CCCC[C@H]2N[C@H]2CCCN(c3ccc(C#N)cc3)C2)c1` [Example 203], under setting [4], the EC50 was 0.211 µM.

With `FC(F)(F)c1ccc(N2CCC[C@H](N[C@@H]3CCCC[C@H]3Nc3cc(-c4ccncc4)ccn3)C2)cc1` [Example 191], the EC50 under setting [1] turned out to be 0.048 µM.

Take `O=[N+]([O-])c1ccc(N2CCC[C@H](N[C@@H]3CCCC[C@H]3Nc3ncc(-c4ccc(F)cc4F)o3)C2)cc1` [Example 20, (1R,2R)—N1-(5-(2,4-Difluorophenyl)oxazol-2-yl)-N2-((S)-1-(4-nitrophenyl)piperidin-3-yl)cyclohexane-1,2-diamine]: under setting [6], the half-maximal effective concentration (EC50) was determined as 0.01 µM.

With `N#Cc1cnc(N2C[C@@H]3C[C@H](N[C@@H]4CCCC[C@H]4Nc4cc(Br)ccn4)[C@H]2C3)nc1` [Example 441], the EC50 under setting [2] worked out at 0.803 µM.

Consider `N#Cc1ccc(N2CCC[C@H](N[C@@H]3CCCC[C@H]3Nc3cc(-c4cccc5c4CC(=O)N5)ccn3)C2)cc1` [Example 212], for which the EC50 under setting [4] turned out to be 0.013 µM.

In the case of `N#Cc1ccc(N2CCC[C@H](N[C@@H]3CCCC[C@H]3Nc3nc4ccccc4o3)C2)cc1` [Example 55, 4-((S)-3-((1R,2R)-2-(Benzo[d]oxazol-2-ylamino)cyclohexylamino)piperidin-1-yl)benzonitrile], the EC50 under setting [6] was found to be 0.463 µM.

Consider `Cc1ccn(-c2ccc(N3CCC[C@H](N[C@@H]4CCCC[C@H]4Nc4ncc(-c5ccc(OC(F)(F)F)cc5)o4)C3)cc2)n1` [Example 68, (1R,2R)—N1-((S)-1-(4-(3-Methyl-1H-pyrazol-1-yl)phenyl)piperidin-3-yl)-N2-(5-(4-(trifluoromethoxy)phenyl)oxazol-2-yl)cyclohexane-1,2-diamine bis-trifluoroacetate], for which the EC50 under setting [6] amounted to 0.489 µM.

Take `NC(=O)c1cccc(-c2ccnc(N[C@@H]3CCCC[C@H]3N[C@H]3CCCN(c4ccc(F)cc4)C3)c2)c1` [Example 453]: the EC50 under setting [2] is 0.041 µM.

Take `FC(F)(F)c1ccc(N2CCC[C@H](N[C@@H]3CCCC[C@H]3Nc3cc(-c4ccccc4)ccn3)C2)cc1` [Example 75, (1R,2R)—N1-(4-Phenylpyridin-2-yl)-N2-((S)-1-(4-(trifluoromethyl)phenyl)piperidin-3-yl)cyclohexane-1,2-diamine]: the EC50 under setting [6] turned out to be 0.252 µM.

Take `Cc1nc(-c2ccc(N3CCC[C@H](N[C@@H]4CCCC[C@H]4Nc4ncc(-c5cccc(C(=O)NCC(C)C)c5)o4)C3)cn2)no1` [Example 386]: under setting [3], the concentration for a half-maximal effect (EC50) turned out to be 0.243 µM.

`N#Cc1ccnc(N[C@@H]2CCCC[C@H]2N[C@H]2CCCN(c3ccc(C(F)(F)F)cc3)C2)c1` [Example 114, 2-(((1R,2R)-2-(((S)-1-(4-(trifluoromethyl)phenyl)piperidin-3-yl)amino)cyclohexyl)amino)isonicotinonitrile, bis trifluoroacetic acid salt]: the concentration for a half-maximal effect (EC50) under setting [6] turned out to be 0.07 µM.

Take `CNC(=O)c1cccc(-c2ccnc(N[C@@H]3CCCC[C@H]3N[C@H]3CCCN(c4ccc(C#N)cc4)C3)c2)c1` [Example 261]: under setting [4], the EC50 came to 0.009 µM.

For `CS(=O)(=O)NCc1cccc(-c2ccnc(N[C@@H]3CCCC[C@H]3N[C@H]3CCCN(c4ccc(C#N)cc4)C3)c2)c1` [Example 278], the EC50 under setting [4] was found to be 0.024 µM.

As to `Cc1nc(-c2ccc(N3CCC[C@H](N[C@@H]4CCCC[C@H]4Nc4ncc(-c5cccc(C(=O)NC6CC6)c5)o4)C3)cn2)no1` [Example 387], the EC50 under setting [3] was 0.078 µM.

`N#Cc1cc(N2C[C@@H]3C[C@H](N[C@@H]4CCCC[C@H]4Nc4ncc(-c5cccc(C(N)=O)c5)o4)[C@H]2C3)ncn1` [Example 439]: under setting [2], the EC50 is 0.578 µM.

`Cc1nnc(-c2ccc(N3CCCC(N[C@@H]4CCCC[C@H]4Nc4cc(-c5cccc(OC(F)(F)F)c5)ccn4)C3)cc2)o1` (some centres unmarked) [Example 358]: the EC50 under setting [2] was 0.017 µM.

As to `Cn1nnc(-c2ccc(N3CCC[C@H](N[C@@H]4CCCC[C@H]4Nc4cc(-c5cccc(C(N)=O)c5)ccn4)C3)cc2)n1` [Example 505], the EC50 under setting [2] amounted to 0.009 µM.

With `N#Cc1ccc(N[C@@H]2CCCC[C@H]2N[C@H]2CCCN(c3ccc(C(F)(F)F)cc3)C2)nc1` [Example 192], the concentration giving a half-maximal response (EC50) under setting [1] came out at 0.284 µM.

Take `N#Cc1ccc(N2CCC[C@H](N[C@@H]3CCCC[C@H]3Nc3cc(-c4ccccc4Cl)ccn3)C2)cc1` [Example 248]: the concentration for a half-maximal effect (EC50) under setting [4] was found to be 0.557 µM.

Take `NC(=O)c1cccc(-c2ccnc(N[C@@H]3CCCC[C@H]3N[C@H]3CCCN(c4ccc(-n5cncn5)cc4)C3)c2)c1` [Example 512]: the half-maximal effective concentration (EC50) under setting [2] was found to be 0.65 µM.

Regarding `COc1ccc(-c2cnc(N[C@@H]3CCCC[C@H]3N[C@H]3CCCN(c4ccc([N+](=O)[O-])cc4)C3)o2)c(F)c1` [Example 21, (1R,2R)—N1-(5-(2-fluoro-4-methoxyphenyl)oxazol-2-yl)-N2-((S)-1-(4-nitrophenyl)piperidin-3-yl)cyclohexane-1,2-diamine], the half-maximal effective concentration (EC50) under setting [6] turned out to be 0.011 µM.

On to `CN(C)c1cccc(-c2ccnc(N[C@@H]3CCCC[C@H]3N[C@H]3CCCN(c4ccc(C(F)(F)F)cc4)C3)c2)c1` [Example 159], for which, under setting [1], the EC50 was found to be 0.239 µM.

`OCCCc1cccc(-c2ccnc(N[C@@H]3CCCC[C@H]3N[C@H]3CCCN(c4ccc(C(F)(F)F)cc4)C3)c2)c1` [Example 153]: the concentration giving a half-maximal response (EC50) under setting [1] was found to be 0.031 µM.

`FC(F)(F)Oc1cccc(-c2cnc(N[C@@H]3CCCC[C@H]3N[C@H]3CCCN(c4ccc(C(F)(F)F)cc4)C3)nc2)c1` [Example 177]: the half-maximal effective concentration (EC50) under setting [1] was 0.781 µM.

With `O=C(NC1CC1)c1cccc(-c2cnc(N[C@@H]3CCCC[C@H]3N[C@H]3CCCN(c4ccc(C(F)(F)F)cc4)C3)o2)c1` [Example 117], the 50% effective concentration (EC50) under setting [1] came out at 0.001 µM.

For the compound `N#Cc1ccc(N2CCC[C@H](N[C@@H]3CCCC[C@H]3Nc3noc(-c4ccccc4)n3)C2)cc1` [Example 41], under setting [6], the EC50 came to 2.51 µM.

As for `Oc1ccc(-c2ccnc(N[C@@H]3CCCC[C@H]3N[C@H]3CCCN(c4ccc(C(F)(F)F)cc4)C3)c2)cc1` [Example 135], under setting [1], the half-maximal effective concentration (EC50) came to 0.027 µM.

Take `N#Cc1cccc(-c2ccnc(N[C@@H]3CCCC[C@H]3N[C@H]3C[C@@H]4C[C@H]3N(c3ccc([N+](=O)[O-])cc3)C4)c2)c1` [Example 293]: the concentration for a half-maximal effect (EC50) under setting [5] is 0.163 µM.

One may read the EC50 as the concentration at which the effect is half-maximal.
